# Experimental data: patent US20130011376A1, “Methods for Enhancing Natural Killer Cell Proliferation and Activity” (GAMIDA CELL LTD., priority 2009, published 2013)
# Experiments:
# [1] = system: irradiated NOD/SCID mice; assay: In-vivo homing and engraftment of cultured human NK cells; conditions: 4 days post infusion
# Procedure: NK cells were expanded with or without 2.5 mM or 5.0 mM nicotinamide, as described above. After 2-3 weeks in culture, similar numbers (15×10^6) of cells were infused into irradiated (350 Rad) NOD/SCID mice. Mice were sacrificed 4-days post infusion. Spleen, bone marrow and peripheral blood were analyzed for the homing and engraftment of human NK (CD45+CD56+) cells using […], in order to distinguish them from endogenous cells. Engraftment is expressed as the % of NK cells having the transplanted lineage (CD45+CD56+) using anti-human specific antibodies from the total number of mouse endogenous cells identified in the tissue.
# Irradiated (350 Rad) NOD/SCID mice received 15×10^6 cells from human peripheral blood NK (T-cell depleted) cultures maintained for up to 3 weeks with (NAM 2.5 mM and NAM 5 mM) or without (NAM 0) nicotinamide. Upon sacrifice of the mice 4 days post infusion, samples of spleen, bone marrow and peripheral blood were evaluated by FACS for the presence of human NK cells (CD56+CD45+) using human specific Abs.
# [2] = system: peripheral blood-derived, immunobeads-purified CD56+ cells; assay: Assay of CD62L expression on NK cell surface, purified peripheral blood CD56+ cells; format: cell-based, human; conditions: 2.5-7.5 mM nicotinamide, 3 weeks in culture
# Procedure: Cultures were initiated with peripheral-blood-derived CD56+ cells purified with immunomagnetic beads and activated with cytokines (including IL-2 and IL-15) with or without nicotinamide (2.5, 5 and 7.5 mM). NK cells were stained with specific antibodies for the specified surface markers (e.g., CD62L) before activation in culture and after 3 weeks incubation with nicotinamide, and then monitored by FACS.
# [3] = system: monocyte (CD14+) and granulocyte (CD15+) cells; assay: Contaminating monocytes and granulocytes in NK cell cultures (FACS); format: cell-based, human; conditions: 14 days culture
# Procedure: For depletion procedure, total nuclear cells from umbilical cord blood (CB), bone marrow (BM) or peripheral blood (PB) cells were layered on a Ficoll-Hypaque gradient (1.077 g/mL; Sigma), and centrifuged at 800×g for 30 minutes for separation of the mononuclear cells. The cells in the interface layer were collected and washed three times in phosphate-buffered saline (PBS) (Biological Industries, Israel) containing 0.5% HSA. Optionally, cells are not separated on the Ficoll-Hypaque gradient but washed three times in phosphate-buffered saline (PBS) (Biological Industries) containing 0.5% HSA (“total mononuclear fraction”). CD3 cells were depleted using the CD3 cell isolation kit (Miltenyi Biotec Bergisch, Gladbach, Germany) and the entire CD3 negative cell fraction was cultured. […] After negative depletion the cells were counted and characterized by FACS analysis.
# 3. […] To estimate number of cells in culture, cell samples were counted following staining with trypan blue. […]
# Methods for expansion of NK cells in culture, for use in the clinical setting, must be somewhat specific for the NK cell population, lest contaminating non-NK cells also proliferate due to cell culture conditions. The effect of nicotinamide on non-NK cells was evaluated by monitoring monocyte and granulocyte populations in NK cell cultures exposed to 2.5, 5 and 7.5 mM nicotinamide.
smiles,measurement,setting,value
NC(=O)c1cccnc1 [nicotinamide],"localization and engraftment, higher vs lower nicotinamide concentration",[1]; 5 mM compared with 2.5 mM,stronger effect
same,"localization and engraftment of human NK cells (CD56+CD45+) in spleen, bone marrow and peripheral blood",[1]; 15x10^6 cells cultured with 2.5 mM or 5 mM nicotinamide,increased localization and engraftment
same,expression of CD62L following activation in culture with IL-2,[2],remarkable increase
same,suppression of CD14 proliferation,[3],greater than 50%
same,suppression of granulocyte proliferation,[3],greater than 50%
